Data on eight compounds can be found in patent US9669060B2, “Compositions for preventing and treating uterine disease” (CORNELL UNIVERSITY, priority 2009, dated 2017).

In brackets after ≈: the same amount, converted by molar mass. Like-named read-outs stand apart in the source and are kept apart here.

One assay has as its system uropathogenic E. coli. The note with it: fimH immunization, murine model (Langermann et al., 1997); cited from earlier work.
In another assay the test system is E. coli from calves. The note with it: cited from earlier work.
Assay [1] has as its system Escherichia coli recovered from uterine secretion from Holstein dairy cows (n = 80 isolates). The assay is described as follows: Antimicrobial susceptibility assay, MIC by broth microdilution (CLSI). It is filed as cell-based. The note with it: for MIC50 / MIC90: Escherichia coli, 18 hours at 37° C.; for MIC50: MIC that inhibits at least 50% of isolates; for MIC90: MIC that inhibits at least 90% of isolates. Here is the method:
The MIC determinations were performed by broth microdilution method as described by the Clinical and Laboratory Standards Institute (CLSI, 2008) recommendations. […] The dilutions for each antimicrobial tested ranged from 0.25 μg/ml to 256 μg/ml for all the antibiotics and all tests were performed in duplicates. The cultures were diluted in Mueller-Hinton broth to 10^5 CFU/ml and an aliquot of 200 μl of the diluted culture was added to microtiter plate wells, containing various concentrations of the antimicrobials, to a total volume of 300 μl per well. The assays were carried out in duplicates and the required controls of adequacy of the broth to support the growth of the microorganism and the sterility of the broth done.
In addition to the uterine E. coli isolates tested, the reference strain of E. coli ATCC 25922 was included as quality control for MIC determination, as recommended by the CLSI (CLSI, 2008). The MIC that inhibits at least 50% (MIC50) and at least 90% (MIC90) of the isolates, as well as the minimum and maximum MIC, were also derived.
Background: Dilution methods test growth across graded concentrations, often in twofold steps.

The test system of assay [2] is Escherichia coli isolated from the uterus of postpartum Holstein dairy cows (57 isolates). The assay is described as follows: Kinetic (spectrophotometric) MIC and growth curve test with antimicrobials. The class given is cell-based. The settings on record: for MIC: Escherichia coli, minimum concentration that completely inhibited growth for 2-3 hours after beginning of stationary phase of control, estimated from graphics, read-out: Mean MICs; for Mean OD600: growth curve during 10 hours at 37° C., Mueller-Hinton broth. From the text:
Growth was periodically assessed spectrophotometrically in a microplate reader (Synergy™ 2, BioTek) at 600 nm. Curves were plotted with average of the duplicates. The results of this kinetic test were statistically analyzed to derive the mean MIC (mMIC) of the isolates for each antimicrobial tested.
A general linear mixed model was used to analyze the effect of the different antibiotic concentrations and bacteriophage MOIs on the growth curve of 57 E. coli isolates and determinate the mean values. The outcome variable was the OD600 of the Mueller-Hinton (BBL™) broth culture, which was modeled as a Gaussian (normally distributed data) variable. The assumption that the residuals were normally distributed was satisfied by visually evaluating the distribution plot of the studentized residuals. The independent variables offered to the model were: treatment (bacteriophage cocktail and all antimicrobials tested) and time (from 1 until 10). The interaction of treatment and time was also included in the model. […] This implies that data points were correlated within each E. coli isolate. To account appropriately for within correlation of the optical density, we modeled the error term by imposing a first-order autoregressive covariance structure. Variables and interaction were considered significant when their P-values<0.05.

As to “fimH: fimH adhesin of type 1 pili used for immunization in a murine model (Langermann et al., 1997)”, the “prevention of in vivo colonization of the bladder mucosa” value with uropathogenic E. coli is reported as 99%.
The MIC50 is an inhibitory concentration at the 50% level, which refers to growth in some studies and to a panel of isolates in others. Lower therefore signals greater potency. As usually defined, the MIC90 is an inhibitory concentration at the 90% level, which refers to growth in some studies and to a panel of isolates in others. Higher therefore signals weaker potency. Regarding `CS(=O)(=O)c1ccc([C@@H](O)[C@@H](CF)NC(=O)C(Cl)Cl)cc1` [Florfenicol, florfenicol], in the assay on E. coli from calves (diarrheic dairy calves (White et al., 2000)), the “E. coli isolates resistant to both florfenicol and chloramphenicol” value is reported as 85%. Moreover, in assay [1], the “isolates resistant (CLSI criteria)” value amounted to 100%, the MIC50 was found to be 16 µg/mL (≈ 44.7 µM) and the MIC90 turned out to be 16 µg/mL (≈ 44.7 µM). Also, in assay [2], the MIC is 16 µg/mL and the “Mean OD600” value stood at 0.10.
For `CC1(C)S[C@@H]2[C@H](NC(=O)[C@H](N)c3ccccc3)C(=O)N2[C@H]1C(=O)O` [Ampicillin, ampicillin], in the assay on E. coli from calves (feces of healthy lactating dairy calves (Sawant et al., 2007)), the “occurrence of ampicillin-resistant E. coli” value was 48%. Further, in assay [1], the “isolates resistant (CLSI criteria)” value turned out to be 33.7%, the MIC50 was determined as 16 µg/mL (≈ 45.8 µM) and the MIC90 amounted to 32 µg/mL (≈ 91.6 µM). In assay [2], the MIC is 16 µg/mL and the “Mean OD600” value is recorded as 0.14.
As to `[H]/N=C(/N)N[C@H]1[C@H](O)[C@@H](O)[C@H](O[C@@H]2O[C@@H](C)[C@](O)(C=O)[C@H]2O[C@@H]2O[C@@H](CO)[C@H](O)[C@@H](O)[C@@H]2NC)[C@@H](N/C(N)=N\[H])[C@@H]1O` [Streptomycin, streptomycin], in assay [1], the “isolates resistant (CLSI criteria)” value is on record as “none of them were resistant”, the MIC50 came out at 8 µg/mL (≈ 13.8 µM) and the MIC90 turned out to be 8 µg/mL (≈ 13.8 µM). Also, in assay [2], the MIC was 8 µg/mL and the “Mean OD600” value stood at 0.11.
On to `CN[C@@H]1[C@H](O)[C@H](NC)[C@H]2O[C@@]3(O)C(=O)C[C@@H](C)O[C@H]3O[C@@H]2[C@H]1O` [Spectinomycin, spectinomycin], for which, in assay [1], the “isolates resistant (CLSI criteria)” value is “none of them were resistant”, the MIC50 came to 32 µg/mL (≈ 96.3 µM) and the MIC90 was 64 µg/mL (≈ 193 µM). In addition, in assay [2], the MIC was 32 µg/mL and the “Mean OD600” value is on record as 0.17.
For `CO/N=C(\C(=O)N[C@@H]1C(=O)N2C(C(=O)O)=C(CSC(=O)c3ccco3)CS[C@H]12)c1csc(N)n1` [Ceftiofur, ceftiofur], the “prevalence rate of ceftiofur-resistant E. coli” value in the assay on E. coli from calves (Bradford et al., 1999) was 11%. Further, in the assay on E. coli from calves (Sawant et al., 2007), the “prevalence rate of ceftiofur-resistant E. coli” value is listed as 13%. Further, the “occurrence of ceftiofur-resistant E. coli” value in the assay with E. coli from calves (diarrheic calves (White et al.)) is given as 69%. In assay [1], the “isolates resistant (CLSI criteria)” value is listed as 1.2%, the isolates susceptible worked out at 98.7%, the MIC50 stood at 1 µg/mL (≈ 1.91 µM) and the MIC90 is 1 µg/mL (≈ 1.91 µM). Moreover, in assay [2], the MIC is 16 µg/mL and the “Mean OD600” value came to 0.05.
As to `O=C(N[C@H](CO)[C@H](O)c1ccc([N+](=O)[O-])cc1)C(Cl)Cl` [Chloramphenicol, chloramphenicol], in assay [1], the “isolates resistant (CLSI criteria)” value turned out to be 100%, the MIC50 is 64 µg/mL (≈ 198 µM) and the MIC90 stood at 128 µg/mL (≈ 396 µM). Besides, in assay [2], the MIC is 128 µg/mL and the “Mean OD600” value is given as 0.18.
For `CN(C)[C@@H]1C(O)=C(C(N)=O)C(=O)[C@@]2(O)C(O)=C3C(=O)c4c(O)cccc4[C@@](C)(O)[C@H]3C[C@@H]12` [Tetracycline, tetracycline], in assay [1], the MIC50 came out at 1 µg/mL (≈ 2.25 µM) and the MIC90 amounted to 2 µg/mL (≈ 4.5 µM). In assay [2], the MIC was 2 µg/mL and the “Mean OD600” value came out at 0.05.
